No end group written: not given here.

Experimental findings from patent publication US20060079453A1, “Hla binding peptides and their uses” (priority 2002, published 2006) are described below.

Among the targets are HLA-A*3101 (Homo sapiens, UniProt P04439, A270S/D185E/E176V/E277Q/F33T/G231S/G80R/H175R/I121M/I218V/I322F/K168Q/L300P/L318F/M331R/P217A/Q94H/R138Q/T323A/T345S/T97I/V358M); HLA-A*6801 (Homo sapiens, UniProt P04439, A269V/D185E/E176V/E277Q/E87N/F33Y/G231S/I121M/I166T/I218V/L180W/L300P/L318F/N151K/P208A/P217A/Q86R/R169H/T345S); HLA-A*1101 (Homo sapiens, UniProt P04439, A114D/D185E/E176A/F33Y/L180Q/S129P/T187R); HLA-A*3301 (Homo sapiens, UniProt P04439, A270S/D185E/E176V/E277Q/E87N/F33T/G231S/H175R/I121M/I218V/I322F/K168Q/K210R/L300P/L318F/M331R/P217A/Q86R/Q94H/R138Q/T323A/T345S/T97I/V358M/Y195H); HLA-A*0301 (Homo sapiens, UniProt P04439).

Common to all, as to experiment: biochemical
What all share (assay type): binding

Sequence of HLA-A*1101 (P04439 25-365 limits assumed, stated change not applied): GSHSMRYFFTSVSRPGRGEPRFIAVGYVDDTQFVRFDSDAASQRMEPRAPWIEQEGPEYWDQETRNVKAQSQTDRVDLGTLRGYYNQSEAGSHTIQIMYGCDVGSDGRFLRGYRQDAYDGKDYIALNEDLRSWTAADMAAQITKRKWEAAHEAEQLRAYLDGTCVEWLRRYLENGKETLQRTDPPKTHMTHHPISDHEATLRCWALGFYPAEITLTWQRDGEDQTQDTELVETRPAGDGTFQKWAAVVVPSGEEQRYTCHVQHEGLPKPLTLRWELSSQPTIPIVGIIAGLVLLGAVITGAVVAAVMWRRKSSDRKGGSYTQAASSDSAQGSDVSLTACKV

What is called IC50 is the concentration that inhibits the measured activity by half. Lower therefore signals higher potency. With STLGPGPGVRR, the IC50 came to 42 nM against HLA-A*3101; 3.8 nM on HLA-A*6801; 19 nM against HLA-A*1101; 670 nM on HLA-A*3301; 892 nM on HLA-A*0301.

For NIMGRWTGK, the IC50 came out at 3270 nM against HLA-A*3101; 173 nM against HLA-A*6801; 54 nM at HLA-A*1101; 86 nM at HLA-A*3301; 52 nM at HLA-A*0301.

Consider DTLEQTLKR, for which the IC50 was determined as 38100 nM at HLA-A*3101; 110 nM against HLA-A*6801; 12900 nM on HLA-A*1101; 9.2 nM on HLA-A*3301; 31300 nM on HLA-A*0301.

On to RLFEESLGIR, for which the IC50 at HLA-A*3101 was determined as 297 nM; at HLA-A*6801, 409 nM; on HLA-A*1101 it was 1100 nM; against HLA-A*3301 it was 788 nM; on HLA-A*0301, 64 nM.

For the sequence SVCRSSRTR, the IC50 was determined as 249 nM against HLA-A*3101; 17 nM against HLA-A*6801; 97 nM at HLA-A*1101; 547 nM on HLA-A*3301; 323 nM on HLA-A*0301.

On to SLYGKTLEEK, for which the IC50 against HLA-A*3101 was determined as 1040 nM; on HLA-A*6801, 29 nM; at HLA-A*1101, 6.8 nM; against HLA-A*3301, 6520 nM; at HLA-A*0301, 7.9 nM.

For the sequence VTVRIGGMQK, the IC50 on HLA-A*3101 was determined as 2580 nM; at HLA-A*6801, 155 nM; against HLA-A*1101, 13 nM; on HLA-A*3301 it was 44400 nM; against HLA-A*0301, 54 nM.

As for VFADLRIVYK, the IC50 on HLA-A*3101 turned out to be 402 nM; against HLA-A*6801, 273 nM; on HLA-A*1101, 127 nM; on HLA-A*3301, 200 nM; against HLA-A*0301, 2090 nM.

SFYGKTLEER: the IC50 against HLA-A*3101 came out at 17 nM; at HLA-A*6801, 42 nM; against HLA-A*1101, 205 nM; on HLA-A*3301, 66 nM; against HLA-A*0301, 642 nM.

On to AVPGGYPRRK, for which the IC50 on HLA-A*3101 is 40000 nM; on HLA-A*6801 it was 846 nM; against HLA-A*1101, 60 nM; against HLA-A*3301 it was > 5570 nM; at HLA-A*0301, 819 nM.

Regarding ETNPFGICK, the concentration for half-maximal inhibition (IC50) against HLA-A*3101 came out at 29100 nM; on HLA-A*6801 it was 14 nM; at HLA-A*1101, 100 nM; against HLA-A*3301, 804 nM; on HLA-A*0301, 9590 nM.

On to KMFLQLAK, for which the IC50 was 677 nM on HLA-A*3101; 8380 nM on HLA-A*6801; 62 nM against HLA-A*1101; > 126000 nM at HLA-A*3301; 45 nM on HLA-A*0301.

In the case of PVRPQVPLR, the IC50 against HLA-A*3101 was 332 nM; against HLA-A*6801 it was 7010 nM; at HLA-A*1101, 16100 nM; at HLA-A*3301 it was 3440 nM; at HLA-A*0301 it was > 10900 nM.

Turning to YTFVFADLR, the IC50 stood at 20 nM against HLA-A*3101; 2.9 nM against HLA-A*6801; 8.1 nM on HLA-A*1101; 6.6 nM against HLA-A*3301; 3630 nM at HLA-A*0301.

For SVYGETLER, the IC50 was found to be 235 nM on HLA-A*3101; 17 nM at HLA-A*6801; 11 nM against HLA-A*1101; 160 nM on HLA-A*3301; 44 nM against HLA-A*0301.

As to VSIRVGGQIK, the IC50 against HLA-A*3101 was 50700 nM; at HLA-A*6801, 1960 nM; at HLA-A*1101, 91 nM; at HLA-A*3301, > 61700 nM; at HLA-A*0301, 642 nM.

Consider YSVYGTTLER, for which the half-maximal inhibitory concentration (IC50) on HLA-A*3101 was 2140 nM; against HLA-A*6801 it was 19 nM; against HLA-A*1101, 96 nM; against HLA-A*3301, 6900 nM; at HLA-A*0301, 430 nM.

For GTTLESITKK, the half-maximal inhibitory concentration (IC50) was 85200 nM on HLA-A*3101; 10100 nM at HLA-A*6801; 108 nM against HLA-A*1101; 133000 nM against HLA-A*3301; 622 nM against HLA-A*0301.

Turning to GTMYILLKK, the IC50 against HLA-A*3101 amounted to 29 nM; against HLA-A*6801, 3.1 nM; against HLA-A*1101 it was 1.2 nM; at HLA-A*3301, 8450 nM; against HLA-A*0301, 2.2 nM.

Turning to VTIKVGGQLK, the half-maximal inhibitory concentration (IC50) turned out to be 6060 nM on HLA-A*3101; 127 nM on HLA-A*6801; 59 nM against HLA-A*1101; 47600 nM on HLA-A*3301; 188 nM against HLA-A*0301.

Turning to GTRQARRNRK, the IC50 on HLA-A*3101 was 3800 nM; at HLA-A*6801 it was 7790 nM; against HLA-A*1101, 634 nM; against HLA-A*3301, > 42300 nM; against HLA-A*0301, 100 nM.

As to ALKISQLQK, the IC50 at HLA-A*3101 is 3200 nM; against HLA-A*6801 it was > 54800 nM; against HLA-A*1101 it was 96 nM; against HLA-A*3301 it was 23800 nM; on HLA-A*0301, 15 nM.

Consider KFYSKISEYK, for which the IC50 against HLA-A*3101 was 27 nM; against HLA-A*6801, 208 nM; on HLA-A*1101, 674 nM; on HLA-A*3301, 329 nM; at HLA-A*0301, 7.6 nM.

AACWRSRRK: the IC50 was found to be 3020 nM against HLA-A*3101; 12900 nM at HLA-A*6801; 770 nM at HLA-A*1101; 45300 nM on HLA-A*3301; 75 nM on HLA-A*0301.

Turning to KVSEFRWYRR, the IC50 at HLA-A*3101 is 2.8 nM; on HLA-A*6801, 30 nM; on HLA-A*1101, 16 nM; against HLA-A*3301, 159 nM; against HLA-A*0301, 266 nM.

As for VTVRVGGQLK, the IC50 against HLA-A*3101 is 8240 nM; against HLA-A*6801, 141 nM; on HLA-A*1101, 19 nM; at HLA-A*3301, > 72300 nM; at HLA-A*0301 it was 216 nM.

Take TLEQTVKK: the half-maximal inhibitory concentration (IC50) against HLA-A*3101 was > 100000 nM; at HLA-A*6801 it was 21400 nM; at HLA-A*1101, 203 nM; against HLA-A*3301 it was > 75300 nM; against HLA-A*0301, 4770 nM.

ALNAAAAAK: the 50% inhibitory concentration (IC50) against HLA-A*3101 was 11000 nM; at HLA-A*6801, 80000 nM; against HLA-A*1101, 21 nM; against HLA-A*3301, > 72500 nM; on HLA-A*0301, 74 nM.

Turning to FLYLLNKKNK, the half-maximal inhibitory concentration (IC50) at HLA-A*3101 came out at 4310 nM; at HLA-A*6801, 155 nM; against HLA-A*1101 it was 475 nM; against HLA-A*3301, 780 nM; on HLA-A*0301 it was 177 nM.

For the sequence EVYNFACTELK, the IC50 was 484 nM on HLA-A*3101; 2.7 nM against HLA-A*6801; 117 nM against HLA-A*1101; 5.9 nM on HLA-A*3301; 1620 nM at HLA-A*0301.

For RFLSKISEYY, the IC50 at HLA-A*3101 amounted to 14 nM; against HLA-A*6801 it was 4000 nM; at HLA-A*1101, 25500 nM; at HLA-A*3301, 41100 nM; on HLA-A*0301, 1700 nM.

As for RLLSKISEYR, the concentration for half-maximal inhibition (IC50) against HLA-A*3101 came out at 7.7 nM; at HLA-A*6801, 21 nM; at HLA-A*1101 it was 662 nM; at HLA-A*3301, 108 nM; against HLA-A*0301 it was 5.2 nM.

Take RVRRRRWRAR: the half-inhibitory concentration (IC50) is 265 nM at HLA-A*3101; > 36900 nM against HLA-A*6801; > 16800 nM against HLA-A*1101; 3760 nM against HLA-A*3301; 2440 nM at HLA-A*0301.

Regarding NVMGRWTGR, the IC50 worked out at 40 nM against HLA-A*3101; 20 nM at HLA-A*6801; 794 nM against HLA-A*1101; 18 nM at HLA-A*3301; 3880 nM on HLA-A*0301.

As to VTIRIGGQLK, the IC50 at HLA-A*3101 is 4460 nM; on HLA-A*6801 it was 25 nM; against HLA-A*1101 it was 14 nM; at HLA-A*3301, 65800 nM; on HLA-A*0301, 51 nM.

As to FAFADLTVVY, the IC50 came to 23700 nM on HLA-A*3101; 402 nM against HLA-A*6801; 5870 nM at HLA-A*1101; 26800 nM at HLA-A*3301; 18600 nM on HLA-A*0301.
